*1 amine or outer side, *2 acyl side, *3 side chain or, on linkers, in order; H or OH if unused. Where a SMILES comes first, the peptide text is derived from it. Bridges are numbered along the chain shown (N, C = ends). [ ]: non-standard residue; d: D form. ξ: configuration not given here. Trp(1-CH2COOH) = N[C@@H](Cc1cn(CC(=O)O)c2ccccc12)C(=O)O; Phe(3,4,5-F3) = N[C@@H](Cc1cc(F)c(F)c(F)c1)C(=O)O; Phe(3,4-F2) = N[C@@H](Cc1ccc(F)c(F)c1)C(=O)O; NMePhe(4-F) = CN[C@@H](Cc1ccc(F)cc1)C(=O)O; Phe(3-Cl) = N[C@@H](Cc1cccc(Cl)c1)C(=O)O; Phe(4-F) = N[C@@H](Cc1ccc(F)cc1)C(=O)O; d(cisHyp) = O=C(O)[C@H]1C[C@@H](O)CN1; Bta = N[C@@H](Cc1csc2ccccc12)C(=O)O; NMeY = CN[C@@H](Cc1ccc(O)cc1)C(=O)O; Hyp = O=C(O)[C@@H]1C[C@@H](O)CN1; NMeF = CN[C@@H](Cc1ccccc1)C(=O)O; X1 = O=C([C@H]1COCCN1[*:1])[*:2]; dPip(4-aza) = O=C(O)[C@H]1CNCCN1; NMeL = CN[C@@H](CC(C)C)C(=O)O; NMehSer = CN[C@@H](CCO)C(=O)O; NMeNle = CCCC[C@H](NC)C(=O)O; NMeV = CN[C@H](C(=O)O)C(C)C; dPip = O=C(O)[C@H]1CCCCN1; hSer = N[C@@H](CCO)C(=O)O; NMeA = CN[C@@H](C)C(=O)O; Orn = NCCC[C@H](N)C(=O)O; Dab = NCC[C@H](N)C(=O)O; Dap = NC[C@H](N)C(=O)O; ξPip = O=C(O)C1CCCCN1; ξP = O=C(O)C1CCCN1; ξC = NC(CS)C(=O)O
The compounds below were run against T1, Human PD-L1/PD-1 (Homo sapiens, UniProt Q9NZQ7) (assay: HTRF Human PD-L1/PD-1 binding assay (PD-1-Ig/PD-L1-His)). Conditions: PD-L1-His 10 nM, PD-1-Ig 20 nM; class symbol; read-out: HTRF Human PD-L1/PD-1 Binding Assay IC50 Range.
T1 construct: TVMV protease cleavage site (C); made in house; host or cells: HEK293T cells
Procedure, shortened: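 Soluble HEK293T-expressed proteins: hPD-L1-His 10 nM, hPD-1-Ig 20 nM final. Cpd + PD-L1 15 min, + PD-1 15 min, + Eu anti-Ig 1 nM/APC anti-His 20 nM 30 min. Buffer dPBS, 0.1% BSA, 0.05% Tween-20. TR-FRET 665/620.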

T1 sequence (Q9NZQ7 with tags, fused parts or gaps): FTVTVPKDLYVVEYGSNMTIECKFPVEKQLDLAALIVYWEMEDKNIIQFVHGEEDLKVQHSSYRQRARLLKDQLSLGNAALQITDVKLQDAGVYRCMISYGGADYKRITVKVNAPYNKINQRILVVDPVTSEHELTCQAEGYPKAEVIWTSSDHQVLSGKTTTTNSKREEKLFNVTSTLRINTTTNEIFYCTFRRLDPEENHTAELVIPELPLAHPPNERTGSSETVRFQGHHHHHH

SMILES | IC50 [nM]
CCCC[C@H]1C(=O)N2CCC[C@@H]2C(=O)N[C@@H](CC(=O)O)C(=O)N[C@@H](C(C)C)C(=O)N(C)[C@@H](Cc2ccccc2)C(=O)N[C@@H](CCN)C(=O)N2CCCC[C@@H]2C(=O)N[C@H](CCC(=O)O)C(=O)N[C@@H](Cc2ccc(O)cc2)C(=O)N[C@@H](CCCN)C(=O)N[C@H](C(=O)NCC(N)=O)CSCC(=O)N[C@@H](Cc2cc(F)c(F)c(F)c2)C(=O)N(C)[C@@H](Cc2ccc(F)cc2)C(=O)N1C [Example 10609] ({CH2CO}-[Phe(3,4,5-F3)][NMePhe(4-F)][NMeNle][dP]DV[NMeF][Dab][dPip][dE]Y[Orn]CG-NH2; thioether N-13) | 100 to 990
CCCC[C@H]1C(=O)N2CCC[C@@H]2C(=O)N[C@@H](CC(=O)O)C(=O)N[C@@H](C(C)C)C(=O)N(C)[C@@H](Cc2ccccc2)C(=O)N[C@@H](CCC(=O)O)C(=O)N2CCOC[C@@H]2C(=O)N[C@@H](Cc2c[nH]c3ccccc23)C(=O)N[C@@H](Cc2ccc(O)cc2)C(=O)N[C@@H](CC(N)=O)C(=O)N[C@H](C(=O)NCC(N)=O)CSCC(=O)N[C@@H](Cc2cc(F)c(F)c(F)c2)C(=O)N(C)[C@@H](Cc2ccc(F)cc2)C(=O)N1C [Example 10597] ({CH2CO}-[Phe(3,4,5-F3)][NMePhe(4-F)][NMeNle][dP]DV[NMeF]E[X1]WYNCG-NH2; thioether N-13) | 1 to 9.9
CCCC[C@H]1C(=O)N2CCC[C@@H]2C(=O)N[C@@H](CC(=O)O)C(=O)N[C@@H](C(C)C)C(=O)N(C)[C@@H](C(C)C)C(=O)N[C@@H](Cc2ccc(O)cc2)C(=O)N2CCCC[C@@H]2C(=O)N[C@@H](Cc2c[nH]c3ccccc23)C(=O)N[C@@H](Cc2ccc(O)cc2)C(=O)N[C@@H](CCCN)C(=O)N[C@H](C(=O)NCC(N)=O)CSCC(=O)N[C@@H](Cc2ccc(F)cc2)C(=O)N(C)[C@@H](Cc2ccccc2)C(=O)N1C [Example 9244] ({CH2CO}-[Phe(4-F)][NMeF][NMeNle][dP]DV[NMeV]Y[dPip]WY[Orn]CG-NH2; thioether N-13) | 1000 to 10000
CCCC[C@H]1C(=O)N2CCC[C@@H]2C(=O)N[C@@H](CC(=O)O)C(=O)N[C@@H](C(C)C)C(=O)N(C)[C@@H](Cc2ccccc2)C(=O)N[C@@H](CC(=O)O)C(=O)N2CCCC[C@@H]2C(=O)N[C@@H](Cc2c[nH]c3ccccc23)C(=O)N[C@@H](Cc2ccc(O)cc2)C(=O)N[C@@H](CCN)C(=O)N[C@H](C(=O)NCC(N)=O)CSCC(=O)N[C@@H](Cc2cc(F)c(F)c(F)c2)C(=O)N(C)[C@@H](Cc2ccc(F)cc2)C(=O)N1C [Example 10571] ({CH2CO}-[Phe(3,4,5-F3)][NMePhe(4-F)][NMeNle][dP]DV[NMeF]D[dPip]WY[Dab]CG-NH2; thioether N-13) | 1 to 9.9
CCCC[C@H]1C(=O)N(C)[C@@H](CCCC)C(=O)N[C@@H](CC(C)C)C(=O)N[C@H](C(=O)NCC(N)=O)CSCC(=O)N[C@@H](Cc2ccc(O)cc2)C(=O)N(C)[C@@H](C)C(=O)N[C@@H](CC(N)=O)C(=O)N2CCC[C@H]2C(=O)NCC(=O)N[C@@H](CCC(N)=O)C(=O)N2C[C@H](O)C[C@H]2C(=O)N[C@@H](Cc2c[nH]c3ccccc23)C(=O)NCC(=O)N[C@@H](Cc2c[nH]c3ccccc23)C(=O)N1C [Example 5183] ({CH2CO}-Y[NMeA]NPGQ[Hyp]WGW[NMeNle][NMeNle]LCG-NH2; thioether N-14) | 10 to 99.9
CCCC[C@H]1C(=O)N2CCC[C@@H]2C(=O)N[C@@H](CC(=O)O)C(=O)N[C@@H](C(C)C)C(=O)N(C)[C@@H](Cc2ccccc2)C(=O)N[C@@H](CC(=O)O)C(=O)N2CCCC[C@@H]2C(=O)N[C@@H](Cc2c[nH]c3ccccc23)C(=O)N[C@@H](Cc2ccc(O)cc2)C(=O)N[C@@H](CN)C(=O)N[C@H](C(=O)NCC(N)=O)CSCC(=O)N[C@@H](Cc2cc(F)c(F)c(F)c2)C(=O)N(C)[C@@H](Cc2ccc(F)cc2)C(=O)N1C [Example 10572] ({CH2CO}-[Phe(3,4,5-F3)][NMePhe(4-F)][NMeNle][dP]DV[NMeF]D[dPip]WY[Dap]CG-NH2; thioether N-13) | 1 to 9.9
CCCC[C@H]1C(=O)N2C[C@H](O)C[C@@H]2C(=O)N[C@@H](CC(=O)O)C(=O)N[C@@H](C(C)C)C(=O)N(C)[C@@H](Cc2ccccc2)C(=O)N[C@@H](CCC(N)=O)C(=O)N2C[C@H](O)C[C@@H]2C(=O)N[C@@H](Cc2c[nH]c3ccccc23)C(=O)N[C@@H](Cc2ccc(O)cc2)C(=O)N[C@@H](CCCN)C(=O)N[C@H](C(=O)NCC(N)=O)CSCC(=O)N[C@@H](Cc2ccc(F)c(F)c2)C(=O)N(C)[C@@H](Cc2ccccc2)C(=O)N1C [Example 9302] ({CH2CO}-[Phe(3,4-F2)][NMeF][NMeNle][d(cisHyp)]DV[NMeF]Q[d(cisHyp)]WY[Orn]CG-NH2; thioether N-13) | 1 to 9.9
CCCC[C@H]1C(=O)N2C[C@H](O)C[C@@H]2C(=O)N[C@@H](CC(=O)O)C(=O)N[C@@H](C(C)C)C(=O)N(C)[C@@H](Cc2ccccc2)C(=O)N[C@@H](CCC(=O)O)C(=O)N2CCNC[C@@H]2C(=O)N[C@@H](Cc2c[nH]c3ccccc23)C(=O)N[C@@H](Cc2ccc(O)cc2)C(=O)N[C@@H](CCCN)C(=O)N[C@H](C(=O)NCC(N)=O)CSCC(=O)N[C@@H](Cc2cccc(Cl)c2)C(=O)N(C)[C@@H](Cc2ccccc2)C(=O)N1C [Example 3647] ({CH2CO}-[Phe(3-Cl)][NMeF][NMeNle][d(cisHyp)]DV[NMeF]E[dPip(4-aza)]WY[Orn]CG-NH2; thioether N-13) | 10 to 99.9
CC(C)C[C@@H]1NC(=O)[C@H](Cc2ccc(O)cc2)NC(=O)[C@H](Cc2c[nH]c3ccccc23)NC(=O)[C@H]2CCCCN2C(=O)[C@H](CCC(=O)O)NC(=O)[C@H](Cc2ccccc2)N(C)C(=O)[C@H](C(C)C)NC(=O)[C@H](CC(=O)O)NC(=O)[C@H]2CCCN2C(=O)[C@H](Cc2ccc(O)cc2)N(C)C(=O)[C@H](Cc2ccc(F)cc2)N(C)C(=O)[C@H](Cc2cc(F)c(F)c(F)c2)NC(=O)CSC[C@@H](C(=O)NCC(N)=O)NC1=O [Example 10611] ({CH2CO}-[Phe(3,4,5-F3)][NMePhe(4-F)][NMeY][dP]DV[NMeF]E[dPip]WYLCG-NH2; thioether N-13) | 1 to 9.9

Second part, the compound after the results:

IC50 [nM] | SMILES
1000 to 10000 | CCCC[C@H]1C(=O)N[C@@H](CC(N)=O)C(=O)N2CCC[C@H]2C(=O)N[C@@H](CO)C(=O)N[C@@H](CCO)C(=O)N2C[C@H](O)C[C@H]2C(=O)N[C@@H](Cc2c[nH]c3ccccc23)C(=O)N[C@@H](CO)C(=O)N[C@@H](Cc2c[nH]c3ccccc23)C(=O)N(C)[C@@H](C)C(=O)N(C)[C@@H](C)C(=O)N[C@@H](CCCN)C(=O)NC(C(=O)NCC(N)=O)CSCC(=O)N[C@@H](Cc2ccc(O)cc2)C(=O)N1C (stereo partly drawn) [Example 10213] ({CH2CO}-Y[NMeNle]NPS[hSer][Hyp]WSW[NMeA][NMeA][Orn][ξC]G-NH2; thioether N-14)
1 to 9.9 | CCCC[C@H]1C(=O)N(C)[C@@H](CCCC)C(=O)N[C@@H](CCC(=O)O)C(=O)N[C@H](C(=O)NCC(N)=O)CSCC(=O)N[C@@H](Cc2ccc(O)cc2)C(=O)N(C)[C@@H](C)C(=O)N[C@@H](CC(N)=O)C(=O)N2CCCC2C(=O)N[C@@H](CN)C(=O)N[C@@H](CC(C)C)C(=O)N2C[C@H](O)C[C@H]2C(=O)N[C@@H](Cc2c[nH]c3ccccc23)C(=O)N[C@@H](CCN)C(=O)N[C@@H](Cc2cn(CC(=O)O)c3ccccc23)C(=O)N1C (stereo partly drawn) [Example 6344] ({CH2CO}-Y[NMeA]N[ξP][Dap]L[Hyp]W[Dab][Trp(1-CH2COOH)][NMeNle][NMeNle]ECG-NH2; thioether N-14)
1000 to 10000 | CCCC[C@H]1C(=O)N(C)[C@@H](CCCC)C(=O)N(C)[C@@H](CC(C)C)C(=O)N[C@H](C(=O)NCC(N)=O)CSCC(=O)N[C@@H](Cc2ccc(O)cc2)C(=O)N(C)[C@@H](C)C(=O)N[C@@H](CC(N)=O)C(=O)N2CCC[C@H]2C(=O)N[C@@H](Cc2c[nH]cn2)C(=O)N[C@@H](CCC(=O)O)C(=O)N2C[C@H](O)C[C@H]2C(=O)N[C@@H](Cc2c[nH]c3ccccc23)C(=O)N[C@@H](CCN)C(=O)N[C@@H](Cc2csc3ccccc23)C(=O)N1C [Example 5264] ({CH2CO}-Y[NMeA]NPHE[Hyp]W[Dab][Bta][NMeNle][NMeNle][NMeL]CG-NH2; thioether N-14)
10 to 99.9 | CCCC[C@H]1C(=O)N(C)[C@@H](CCCC)C(=O)N[C@@H](CCCN)C(=O)N[C@H](C(=O)NCC(N)=O)CSCC(=O)N[C@@H](Cc2ccc(O)cc2)C(=O)N2CCCCC2C(=O)N[C@@H](CC(=O)O)C(=O)N2CCC[C@H]2C(=O)N[C@@H](CN)C(=O)N[C@@H](CCC(=O)O)C(=O)N2C[C@H](O)C[C@H]2C(=O)N[C@@H](Cc2c[nH]c3ccccc23)C(=O)N[C@@H](CO)C(=O)N[C@@H](Cc2c[nH]c3ccccc23)C(=O)N1C (stereo partly drawn) [Example 1530] ({CH2CO}-Y[ξPip]DP[Dap]E[Hyp]WSW[NMeNle][NMeNle][Orn]CG-NH2; thioether N-14)
10 to 99.9 | CCCC[C@H]1C(=O)N[C@@H](CC(C)C)C(=O)N[C@H](C(=O)NCC(N)=O)CSCC(=O)N[C@@H](Cc2ccc(O)cc2)C(=O)N(C)[C@@H](C)C(=O)N[C@@H](CCN)C(=O)N2CCC[C@H]2C(=O)N[C@@H](Cc2c[nH]cn2)C(=O)N[C@@H](CCC(=O)O)C(=O)N2C[C@H](O)C[C@H]2C(=O)N[C@@H](Cc2c[nH]c3ccccc23)C(=O)N[C@@H](CO)C(=O)N[C@@H](Cc2c[nH]c3ccccc23)C(=O)N(C)[C@@H](CCOC)C(=O)N1C [Example 10140] ({CH2CO}-Y[NMeA][Dab]PHE[Hyp]WSW[NMehSer](Me)[NMeNle]LCG-NH2; thioether N-14)
1 to 9.9 | CCCC[C@H]1C(=O)N(C)[C@@H](CCCC)C(=O)N[C@@H](CC(C)C)C(=O)N[C@H](C(=O)NCC(N)=O)CSCC(=O)N[C@@H](Cc2ccc(O)cc2)C(=O)N(C)[C@@H](C)C(=O)N[C@@H](CCN)C(=O)N2CCC[C@H]2C(=O)N[C@@H](Cc2cnc[nH]2)C(=O)N[C@@H](CCC(=O)O)C(=O)N2C[C@H](O)C[C@H]2C(=O)N[C@@H](Cc2c[nH]c3ccccc23)C(=O)N[C@@H](CO)C(=O)N[C@@H](Cc2cn(CC(=O)O)c3ccccc23)C(=O)N1C [Example 6236] ({CH2CO}-Y[NMeA][Dab]PHE[Hyp]WS[Trp(1-CH2COOH)][NMeNle][NMeNle]LCG-NH2; thioether N-14)
